# US10501421B1, “Substituted benzimidazoles as modulators of Ras signaling” (VANDERBILT UNIVERSITY, priority 2017, dated 2019)
# Structures can show the parent of a compound that is named as a salt.
# Target: Ras GEF SOS (Son of Sevenless) (Homo sapiens, UniProt Q07889)
# Assay: SOS-mediated nucleotide exchange on Ras (BODIPY-GDP fluorescence)
# Format: biochemical
# Conditions: SOS-mediated exchange of BODIPY-GDP for GTP on Ras
# Experimental: Compounds of the present invention were tested for their ability to modify the rate at which Ras exchanges a labeled nucleotide guanosine diphosphate (GDP) analog for guanosine triphosphate (GTP). Briefly, test compounds, then GTP and the Ras GEF SOS (Son of Sevenless) are added to a buffered solution containing Ras protein loaded with BODIPY-GDP. Changes in fluoresence indicating exchange of the labeled GDP for GTP are monitored over time. Raw fluorescence data was fit to a single exponential decay function and derived rates were plotted as mean values. EC50 values were calculated by plotting mean derived rates as a function of compound concentration and fit using a four-parameter dose-response curve. This assay is performed in a method analogous to the assay disclosed in: Burns, M. C.; Sun, Q.; Daniels, R. N.; Camper, D. V.; Kennedy, J. P.; Phan, J.; Olejniczak, E. O.; Lee, T.; Waterson, A. G.; Rossanese, O. W.; Fesik, S. W. “Approach for targeting Ras with small molecules that activate SOS-mediated nucleotide exchange” Proc. Natl. Acad. Sci. 2014; 11(9): 3401-3406. PMCID: PMC3948241.
# Ras GEF SOS (Son of Sevenless), sequence (Q07889 564-1049 limits assumed): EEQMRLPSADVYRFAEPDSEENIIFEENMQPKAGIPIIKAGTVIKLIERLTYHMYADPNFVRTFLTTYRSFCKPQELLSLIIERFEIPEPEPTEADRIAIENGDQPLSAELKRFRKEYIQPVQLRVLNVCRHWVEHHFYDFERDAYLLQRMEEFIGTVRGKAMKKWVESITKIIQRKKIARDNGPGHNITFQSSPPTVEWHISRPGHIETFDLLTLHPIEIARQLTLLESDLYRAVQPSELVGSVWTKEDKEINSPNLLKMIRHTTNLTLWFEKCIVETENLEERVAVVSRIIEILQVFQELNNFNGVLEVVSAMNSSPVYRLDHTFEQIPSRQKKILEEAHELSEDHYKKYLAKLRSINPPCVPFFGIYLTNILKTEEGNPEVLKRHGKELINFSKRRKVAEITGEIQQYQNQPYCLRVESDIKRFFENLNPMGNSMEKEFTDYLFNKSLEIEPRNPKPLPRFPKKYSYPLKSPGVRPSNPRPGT
# Ras GEF SOS (Son of Sevenless), sequence (P01112 1-166 partner limits assumed): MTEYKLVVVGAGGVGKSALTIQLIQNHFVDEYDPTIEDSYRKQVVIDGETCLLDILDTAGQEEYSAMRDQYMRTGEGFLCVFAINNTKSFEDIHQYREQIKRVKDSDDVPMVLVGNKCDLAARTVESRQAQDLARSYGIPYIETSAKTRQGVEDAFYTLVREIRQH
row,EC50 [µM],Structure (SMILES)
1,30 to 100,"Nc1nc2ccccc2n1Cc1ccc(F)cc1 [Example 1, 1-(4-fluorobenzyl)-1H-benzo[d]imidazol-2-amine]"
2,30 to 100,"Nc1nc2ccccc2n1Cc1ccc(F)c(Cl)c1 [Example 2, 1-(3-chloro-4-fluorobenzyl)-1H-benzo[d]imidazol-2-amine]"
3,30 to 100,"Cc1cc2nc(N)n(Cc3ccc(F)cc3)c2cc1C [Example 3, 1-(4-fluorobenzyl)-5,6-dimethyl-1H-benzo[d]imidazol-2-amine]"
4,30 to 100,"Cc1cc2nc(N)n(Cc3ccc(Cl)cc3)c2cc1C [Example 5, 1-(4-chlorobenzyl)-5,6-dimethyl-1H-benzo[d]imidazol-2-amine]"
5,30 to 100,"Cc1cc2nc(N)n(Cc3cc(F)cc(F)c3)c2cc1C [Example 6, 1-(3,5-difluorobenzyl)-5,6-dimethyl-1H-benzo[d]imidazol-2-amine]"
6,30 to 100,"Fc1ccc(Cn2c(N3CCOCC3)nc3ccccc32)cc1Cl [Example 8, 4-(1-(3-chloro-4-fluorobenzyl)-1H-benzo[d]imidazol-2-yl)morpholine]"
7,30 to 100,"Fc1ccc(Cn2c(N3CCOCC3)nc3ccccc32)cc1 [Example 9, 4-(1-(4-fluorobenzyl)-1H-benzo[d]imidazol-2-yl)morpholine]"
8,1 to 5,"Clc1ccc(Cn2c(N3CCNCC3)nc3ccccc32)cc1 [Example 11, 1-(4-chlorobenzyl)-2-(piperazin-1-yl)-1H-benzo[d]imidazole trifluoroacetate]"
9,5 to 30,"NCCNc1nc2ccccc2n1Cc1ccc(Cl)cc1 [Example 12, N^1-(1-(4-chlorobenzyl)-1H-benzo[d]imidazol-2-yl)ethane-1,2-diamine trifluoroacetate]"
10,30 to 100,"Fc1cc(F)cc(Cn2c(N3CCOCC3)nc3ccccc32)c1 [Example 13, 4-(1-(3,5-difluorobenzyl)-1H-benzo[d]imidazol-2-yl)morpholine]"
11,5 to 30,"Fc1cc(F)cc(Cn2c(N3CCNCC3)nc3ccccc32)c1 [Example 14, 1-(3,5-difluorobenzyl)-2-(piperazin-1-yl)-1H-benzo[d]imidazole trifluoroacetate]"
12,5 to 30,"NCCNc1nc2ccccc2n1Cc1cc(F)cc(F)c1 [Example 15, N^1-(1-(3,5-difluorobenzyl)-1H-benzo[d]imidazol-2-yl)ethane-1,2-diamine trifluoroacetate]"
13,30 to 100,"Cc1cc2nc(NCCO)n(Cc3ccc(F)cc3)c2cc1C [Example 23, 2-((1-(4-fluorobenzyl)-5,6-dimethyl-1H-benzo[d]imidazol-2-yl)amino)ethan-1-ol]"
14,30 to 100,"Cc1cc2nc(N3CCN(C)CC3)n(Cc3ccc(F)c(Cl)c3)c2cc1C [Example 27, 1-(3-chloro-4-fluorobenzyl)-5,6-dimethyl-2-(4-methylpiperazin-1-yl)-1H-benzo[d]imidazole trifluoroacetate]"
15,1 to 5,"Cc1cc2nc(NCCN(C)C)n(Cc3ccc(F)c(Cl)c3)c2cc1C [Example 28, N^1-(1-(3-chloro-4-fluorobenzyl)-5,6-dimethyl-1H-benzo[d]imidazol-2-yl)-N^2,N^2-dimethylethane-1,2-diamine trifluoroacetate]"
16,30 to 100,"Cc1cc2nc(NCCN3CCOCC3)n(Cc3ccc(F)cc3)c2cc1C [Example 29, 1-(4-fluorobenzyl)-5,6-dimethyl-N-(2-morpholinoethyl)-1H-benzo[d]imidazol-2-amine trifluoroacetate]"

row,EC50 [µM],Structure (SMILES)
1,5 to 30,"Cc1cc2nc(NCCN3CCOCC3)n(Cc3ccc(F)c(Cl)c3)c2cc1C [Example 30, 1-(3-chloro-4-fluorobenzyl)-5,6-dimethyl-N-(2-morpholinoethyl)-1H-benzo[d]imidazol-2-amine trifluoroacetate]"
2,5 to 30,"Cc1cc2nc(N3CCNCC3)n(Cc3cccc(C(F)(F)F)c3)c2cc1C [Example 32, 5,6-dimethyl-2-(piperazin-1-yl)-1-(3-(trifluoromethyl)benzyl)-1H-benzo[d]imidazole trifluoroacetate]"
3,30 to 100,"Cc1cc2nc(-c3ccncc3)n(Cc3cc(F)cc(F)c3)c2cc1C [Example 53, 1-(3,5-difluorobenzyl)-5,6-dimethyl-2-(pyridin-4-yl)-1H-benzo[d]imidazole]"
4,30 to 100,"Cc1cc2nc(-c3ccncc3)n(Cc3ccc(F)c(Cl)c3)c2cc1C [Example 54, 1-(3-chloro-4-fluorobenzyl)-5,6-dimethyl-2-(pyridin-4-yl)-1H-benzo[d]imidazole]"
5,5 to 30,"Fc1ccc(Cn2c(C3CCNCC3)nc3ccccc32)cc1Cl [Example 55, 1-(3-chloro-4-fluorobenzyl)-2-(piperidin-4-yl)-1H-benzo[d]imidazole trifluoroacetate]"
6,5 to 30,"Fc1cc(F)cc(Cn2c(C3CCNCC3)nc3ccccc32)c1 [Example 57, 1-(3,5-difluorobenzyl)-2-(piperidin-4-yl)-1H-benzo[d]imidazole trifluoroacetate]"
7,5 to 30,"Cc1cc2nc(C3CCNCC3)n(Cc3ccc(F)c(Cl)c3)c2cc1C [Example 59, 1-(3-chloro-4-fluorobenzyl)-5,6-dimethyl-2-(piperidin-4-yl)-1H-benzo[d]imidazazole trifluoroacetate]"
8,1 to 5,"Cc1ccc2nc(NCCN)n(Cc3ccc(F)c(Cl)c3)c2c1 [Example 60, N^1-(1-(3-chloro-4-fluorobenzyl)-6-methyl-1H-benzo[d]imidazol-2-yl)ethane-1,2-diamine trifluoroacetate]"
9,1 to 5,"Fc1ccc(Cn2c(N3CCNCC3)nc3ccc(C(F)(F)F)cc32)cc1Cl [Example 71, 1-(3-chloro-4-fluorobenzyl)-2-(piperazin-1-yl)-6-(trifluoromethyl)-1H-benzo[d]imidazole trifluoroacetate]"
10,1 to 5,"COc1ccc(-c2cccc3c2nc(N2CCNCC2)n3Cc2ccc(F)c(Cl)c2)cc1OC [Example 88, 1-(3-chloro-4-fluorobenzyl)-4-(3,4-dimethoxyphenyl)-2-(piperazin-1-yl)-1H-benzo[d]imidazole]"
11,5 to 30,"NCCc1cccc2c1nc(N1CCNCC1)n2Cc1cc(F)cc(F)c1 [Example 99, 2-(1-(3,5-difluorobenzyl)-2-(piperazin-1-yl)-1H-benzo[d]imidazol-4-yl)ethan-1-amine trifluoroacetate]"
12,1 to 5,"NCCc1cccc2c1nc(N1CCNCC1)n2Cc1ccc(C(F)(F)F)cc1 [Example 100, 2-(2-(piperazin-1-yl)-1-(4-(trifluoromethyl)benzyl)-1H-benzo[d]imidazol-4-yl)ethan-1-amine trifluoroacetate]"
13,1 to 5,"Cc1cc2c(nc(NCCN)n2Cc2cccc(C#N)c2)c(-c2ccccc2Cl)c1C [Example 117, 3-((2-((2-aminoethyl)amino)-4-(2-chlorophenyl)-5,6-dimethyl-1H-benzo[d]imidazol-1-yl)methyl)benzonitrile trifluoroacetate]"
14,30 to 100,"Cc1cc(CN2CCCCC2)c2ncn(Cc3ccc(F)c(Cl)c3)c2c1 [Example 144, 1-(3-chloro-4-fluorobenzyl)-6-methyl-4-(piperidin-1-ylmethyl)-1H-benzo[d]imidazole trifluoroacetate]"
15,1 to 5,"Cc1cc2c(nc(NCCN)n2Cc2ccc(F)c(Cl)c2)c(CN2CCCC2)c1C [Example 146, N^1-(1-(3-chloro-4-fluorobenzyl)-5,6-dimethyl-4-(pyrrolidin-1-ylmethyl)-1H-benzo[d]imidazol-2-yl)ethane-1,2-diamine trifluoroacetate]"
